Test results as given in ChEMBL document CHEMBL1201862, “PubChem BioAssay data set” (2004).
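Results reflect a 48-hour exposure of cells in 96-well plates to compound at five concentrations. The concentration for 50% growth inhibition is given as GI50.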 Activity calls are given as the source filed them. Cut-off read from the data, not from the text of the source: active = GI50 up to about 1.1 µM and inactive = higher.

Legend:
Experiment in all cases: NCI-60 cell line screen, 48 h
LOX IMVI = test system: LOX IMVI
OVCAR-3 = test system: OVCAR-3
MDA-MB-435 = test system: MDA-MB-435
RXF 631 = test system: RXF 631
UO-31 = test system: UO-31
TK-10 = test system: TK-10
XF498 = test system: XF498
OVCAR-8 = test system: OVCAR-8
T47D = test system: T47D
RPMI-8226 = test system: RPMI-8226
CAKI-1 = test system: CAKI-1
HT-29 = test system: HT-29
A549 = test system: A549
LXFL 529 = test system: LXFL 529
BT-549 = test system: BT-549
HOP-18 = test system: HOP-18
SK-OV-3 = test system: SK-OV-3
MDA-N = test system: MDA-N
NCI-H522 = test system: NCI-H522
HOP-62 = test system: HOP-62
SK-MEL-5 = test system: SK-MEL-5
OVCAR-5 = test system: OVCAR-5
UACC-62 = test system: UACC-62
OVCAR-4 = test system: OVCAR-4
SR = test system: SR
SK-MEL-2 = test system: SK-MEL-2
SK-MEL-28 = test system: SK-MEL-28
M14 = test system: M14
COLO 205 = test system: COLO 205
HCC 2998 = test system: HCC 2998
SNB-78 = test system: SNB-78
NCI-H460 = test system: NCI-H460
NCI-H226 = test system: NCI-H226
KM-20L2 = test system: KM-20L2
UACC-257 = test system: UACC-257
HCT-116 = test system: HCT-116
DLD-1 = test system: DLD-1
NCI-H23 = test system: NCI-H23
DMS-114 = test system: DMS-114
KM12 = test system: KM12
SF-268 = test system: SF-268
MOLT-4 = test system: MOLT-4
SNB-19 = test system: SNB-19
K562 = test system: K562
U-251 = test system: U-251
ACHN = test system: ACHN
MDA-MB-231 = test system: MDA-MB-231
A498 = test system: A498
Hs-578T = test system: Hs-578T
SNB-75 = test system: SNB-75
PC-3 = test system: PC-3
SF-539 = test system: SF-539
MCF7 = test system: MCF7
SN12C = test system: SN12C
DU-145 = test system: DU-145
SW-620 = test system: SW-620
Malme-3M = test system: Malme-3M
HL-60 = test system: HL-60
HCT-15 = test system: HCT-15
CCRF-CEM = test system: CCRF-CEM
HOP-92 = test system: HOP-92
786-0 = test system: 786-0
EKVX = test system: EKVX
SF-295 = test system: SF-295
DMS-273 = test system: DMS-273
M19-MEL = test system: M19-MEL
IGROV-1 = test system: IGROV-1
RXF 393 = test system: RXF 393

O=C1c2c(O)cccc2C(C(=O)CCCCC(=O)C2c3cccc(O)c3C(=O)c3c(O)cccc32)c2cccc(O)c21 was tested, and the GI50 (LOX IMVI) was 668 nM (active), the GI50 (OVCAR-3) was 547 nM (active) and the GI50 (MDA-MB-435) was 809 nM (active). The GI50 (RXF 631) was 780 nM (active), the GI50 (UO-31) was 504 nM (active) and the GI50 (TK-10) was 1550 nM (inactive). The GI50 (XF498) was 501 nM (active), the GI50 (OVCAR-8) was 733 nM (active) and the GI50 (T47D) was 442 nM (active). The GI50 (RPMI-8226) was 457 nM (active), the GI50 (CAKI-1) was 3920 nM (inactive) and the GI50 (HT-29) was 641 nM (active). For the same molecule, the GI50 (A549) was 483 nM (active), the GI50 (LXFL 529) was 441 nM (active) and the GI50 (BT-549) was 603 nM (active). The GI50 (HOP-18) was 652 nM (active), the GI50 (SK-OV-3) was 562 nM (active) and the GI50 (MDA-N) was 879 nM (active). For the same molecule, the GI50 (NCI-H522) was 543 nM (active), the GI50 (HOP-62) was 618 nM (active) and the GI50 (SK-MEL-5) was 473 nM (active). For the same molecule, the GI50 (OVCAR-5) was 528 nM (active), the GI50 (UACC-62) was 724 nM (active) and the GI50 (OVCAR-4) was 782 nM (active). For the same molecule, the GI50 (SR) was 798 nM (active), the GI50 (SK-MEL-2) was 540 nM (active) and the GI50 (SK-MEL-28) was 877 nM (active). The GI50 (M14) was 897 nM (active), the GI50 (COLO 205) was 759 nM (active) and the GI50 (HCC 2998) was 791 nM (active). The GI50 (SNB-78) was 550 nM (active), the GI50 (NCI-H460) was 403 nM (active) and the GI50 (NCI-H226) was 918 nM (active). For the same molecule, the GI50 (KM-20L2) was 918 nM (active), the GI50 (UACC-257) was 526 nM (active) and the GI50 (HCT-116) was 670 nM (active). The GI50 (DLD-1) was 1040 nM (active), the GI50 (NCI-H23) was 618 nM (active) and the GI50 (DMS-114) was 522 nM (active). For the same molecule, the GI50 (KM12) was 607 nM (active), the GI50 (SF-268) was 690 nM (active) and the GI50 (MOLT-4) was 979 nM (active). The GI50 (SNB-19) was 288 nM (active), the GI50 (K562) was 661 nM (active) and the GI50 (U-251) was 433 nM (active). The GI50 (ACHN) was 729 nM (active), the GI50 (MDA-MB-231) was 426 nM (active) and the GI50 (A498) was 1560 nM (inactive). For the same molecule, the GI50 (Hs-578T) was 176 nM (active), the GI50 (SNB-75) was 948 nM (active) and the GI50 (PC-3) was 107 nM (active). For the same molecule, the GI50 (SF-539) was 399 nM (active), the GI50 (MCF7) was 845 nM (active) and the GI50 (SN12C) was 830 nM (active). For the same molecule, the GI50 (DU-145) was 671 nM (active), the GI50 (SW-620) was 925 nM (active) and the GI50 (Malme-3M) was 1380 nM (inactive). For the same molecule, the GI50 (HL-60) was 485 nM (active), the GI50 (HCT-15) was 662 nM and the GI50 (CCRF-CEM) was 652 nM (active). For the same molecule, the GI50 (HOP-92) was 627 nM (active), the GI50 (786-0) was 2240 nM (inactive) and the GI50 (EKVX) was 596 nM (active). The GI50 (SF-295) was 469 nM (active) and the GI50 (DMS-273) was 1630 nM (inactive).

With O=C1OC(=O)C2C3C=CC(C12)C1C2C=CC2C31 (stereo not drawn) the GI50 (LOX IMVI) was > 100000 nM (inactive), the GI50 (RXF 631) was > 100000 nM (inactive) and the GI50 (TK-10) was > 100000 nM (inactive). The GI50 (XF498) was 42400 nM (inactive), the GI50 (OVCAR-8) was > 100000 nM (inactive) and the GI50 (CAKI-1) was > 100000 nM (inactive). For the same molecule, the GI50 (HT-29) was > 100000 nM (inactive), the GI50 (A549) was > 100000 nM (inactive) and the GI50 (LXFL 529) was > 100000 nM (inactive). For the same molecule, the GI50 (HOP-18) was > 100000 nM (inactive), the GI50 (SK-OV-3) was > 100000 nM (inactive) and the GI50 (NCI-H522) was > 100000 nM (inactive). For the same molecule, the GI50 (HOP-62) was > 100000 nM (inactive), the GI50 (OVCAR-5) was > 100000 nM (inactive) and the GI50 (OVCAR-4) was > 100000 nM (inactive). The GI50 (SR) was > 100000 nM (inactive), the GI50 (SK-MEL-2) was > 100000 nM (inactive) and the GI50 (SK-MEL-28) was > 100000 nM (inactive). For the same molecule, the GI50 (M19-MEL) was > 100000 nM (inactive), the GI50 (COLO 205) was > 100000 nM (inactive) and the GI50 (HCC 2998) was > 100000 nM (inactive). For the same molecule, the GI50 (NCI-H460) was > 100000 nM (inactive), the GI50 (NCI-H226) was > 100000 nM (inactive) and the GI50 (KM-20L2) was > 100000 nM (inactive). For the same molecule, the GI50 (UACC-257) was > 100000 nM (inactive), the GI50 (HCT-116) was > 100000 nM (inactive) and the GI50 (NCI-H23) was > 100000 nM (inactive). The GI50 (KM12) was > 100000 nM (inactive), the GI50 (SF-268) was > 100000 nM (inactive) and the GI50 (MOLT-4) was > 100000 nM (inactive). For the same molecule, the GI50 (IGROV-1) was > 100000 nM (inactive), the GI50 (SNB-19) was > 100000 nM (inactive) and the GI50 (K562) was > 100000 nM (inactive). For the same molecule, the GI50 (U-251) was > 100000 nM (inactive), the GI50 (ACHN) was > 100000 nM (inactive) and the GI50 (A498) was > 100000 nM (inactive). For the same molecule, the GI50 (RXF 393) was > 100000 nM (inactive), the GI50 (SF-539) was > 100000 nM (inactive) and the GI50 (SN12C) was > 100000 nM (inactive). The GI50 (SW-620) was > 100000 nM (inactive), the GI50 (Malme-3M) was > 100000 nM (inactive) and the GI50 (HL-60) was > 100000 nM (inactive). The GI50 (CCRF-CEM) was > 100000 nM (inactive), the GI50 (HOP-92) was > 100000 nM (inactive) and the GI50 (786-0) was > 100000 nM (inactive). The GI50 (EKVX) was > 100000 nM (inactive), the GI50 (SF-295) was > 100000 nM (inactive) and the GI50 (DMS-273) was > 100000 nM (inactive).
